{
  "source": "patent US8871789B2",
  "about": "“Method of preventing or treating viral infection” (The United States of America, as represented by the …, priority 2010, dated 2014)",
  "data": [
    {"system": "HSV-1", "assay": "not given", "type": "cell-based, Balb/c mice", "conditions": "2 mM DMOG, 2 mM TCP or ACV, 48 hours; FIG. 11", "protocol": "FIG. 18 is a dot plot showing latently infected ganglia that were explanted in the presence of DMSO, ACV (100 mM), or ML324 (50 mM) for 48 hrs. Viral yields were determined from one half of each ganglia at 48 hrs (DMSO, ACV, ML324) and from the other half of each ganglia after drug reversal for an additional 72 hrs (ACV-R, ML324-R) [Wilcoxon matched pairs signed rank test, ACV vs ACV-R n=8, ML324 vs ML324-R n=10]. Data are means±SEM.\nFIG. 19 is a dot plot showing viral yields from HSV-1 latently infected trigeminal ganglia that were explanted in the presence of DMSO, or 2 mM DMOG or 50 mM ML324 for 48 hours (DMSO versus DMOG: P=0.0015, Wilcoxon matched-pairs signed rank test; n=12; DMSO versus ML324: P<0.0001; n=20). Data are means±SEM.\nViral yields decrease from HSV-1 latently infected ganglia explanted in the presence of LSD1 or JMJD2 inhibitors (FIG. 11). Balb/c mice were infected with 5×10^6 PFU HSV-1 (strain F) per eye after corneal scarification. Latently infected mice were sacrificed 45 days post clearance of the primary infection and trigeminal ganglia were rapidly explanted into culture in the presence of 2 mM DMOG, 2 mM TCP, or control (DMSO or ACV, acyclovir) for 48 hours. Post explant incubation, the ganglia were homogenized and briefly sonicated. The reactivated viral yield of each ganglia was determined by titering the clarified supernatant on Vero cells. Statistical comparisons were made using Wilcoxon signed rank test (paired ganglia) with a statistical significance of <0.05. Each data point was the result of a single ganglia divided and treated in the presence and absence of DMSO and DMOG or DMSO and TCP. Therefore, a Wilcoxon signed rank test was used to assess differences between each treated and untreated sample. The significant difference between DMSO control and DMOG was p=0.0018. This test used an exact p-value for small sample sizes with an a level of 0.05. n=20. Analyses were made using Prism (V5.0a) and are expressed as the mean+/−s.e.m.", "values": [
      {"smiles": "N[C@@H]1C[C@H]1c1ccccc1", "note": "(racemic) [TCP, tranylcypromine]", "viral yield from explanted latently infected ganglia": "decreases"},
      {"smiles": "Nc1nc2c(ncn2COCCO)c(=O)[nH]1", "note": "[ACV, acyclovir, reference compound]", "viral yield from explanted latently infected ganglia": "No viral yields"}
    ]},
    {"molecular_target": "T1, JMJD2E (Homo sapiens, UniProt B2RXH2)", "T1 sequence (B2RXH2 1-506)": "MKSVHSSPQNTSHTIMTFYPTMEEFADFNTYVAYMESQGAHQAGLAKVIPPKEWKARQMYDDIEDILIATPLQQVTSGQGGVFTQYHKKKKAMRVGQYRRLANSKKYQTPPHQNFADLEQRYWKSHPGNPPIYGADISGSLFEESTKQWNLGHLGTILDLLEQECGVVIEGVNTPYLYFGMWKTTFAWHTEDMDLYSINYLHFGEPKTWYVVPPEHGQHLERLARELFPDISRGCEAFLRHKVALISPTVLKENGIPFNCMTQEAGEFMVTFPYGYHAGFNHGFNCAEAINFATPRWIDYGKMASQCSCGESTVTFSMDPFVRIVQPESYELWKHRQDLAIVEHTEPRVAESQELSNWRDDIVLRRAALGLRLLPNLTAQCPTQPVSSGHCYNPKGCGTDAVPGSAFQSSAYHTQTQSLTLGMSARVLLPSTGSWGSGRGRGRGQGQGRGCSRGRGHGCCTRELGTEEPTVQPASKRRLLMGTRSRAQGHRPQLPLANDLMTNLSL", "assay": "AlphaLISA assay, JMJD2E histone demethylase inhibition", "type": "biochemical", "conditions": "not given", "units": {"IC50": "µM"}, "values": [
      {"smiles": "CN1CCN(c2cnc3c(O)ccc(C(=O)O)c3c2)CC1", "note": "[Compound 10]", "IC50": 2.25},
      {"smiles": "O=C(O)c1ccc(O)c2ncc(N3CCOCC3)cc12", "note": "[Compound 11]", "IC50": 1.74},
      {"smiles": "O=C(O)c1ccc(O)c2ncc(C3CCNCC3)cc12", "note": "[Compound 12]", "IC50": 1.33},
      {"smiles": "NC1CCN(c2cnc3c(O)ccc(C(=O)O)c3c2)CC1", "note": "[Compound 13]", "IC50": 1.57},
      {"smiles": "O=C(O)c1ccc(O)c2ncc(N3CCCC3)cc12", "note": "[Compound 14]", "IC50": 2.24},
      {"smiles": "O=C(O)c1ccc(O)c2ncc(NC3CCNC3)cc12", "note": "(stereo not shown) [Compound 15]", "IC50": 1.76},
      {"smiles": "N[C@@H]1CCN(c2cnc3c(O)ccc(C(=O)O)c3c2)C1", "note": "[Compound 16]", "IC50": 1.17},
      {"smiles": "O=C(O)c1ccc(O)c2ncc(N3CC4CNCC4C3)cc12", "note": "(stereo not shown) [Compound 17]", "IC50": 1.47},
      {"smiles": "NC(=O)c1cccc(-c2cnc3c(O)ccc(C(=O)O)c3c2)c1", "note": "[Compound 28]", "IC50": 4.9}
    ]},
    {"molecular_target": "T1, JMJD2E", "assay": "AlphaLISA assay, JMJD2E histone demethylase inhibition", "type": "biochemical", "conditions": "Table 2; JMJD2E; AlphaLISA, in triplicate; read-out: IC50", "units": {"IC50": "µM"}, "values": [
      {"smiles": "O=C(O)c1ccnc2c(O)cccc12", "note": "[Compound 2]", "IC50": 3.07},
      {"smiles": "CN(C)CCCNC(=O)c1ccc(-c2cnc3c(O)cccc3c2)cc1", "note": "[Compound 3]", "IC50": 12},
      {"smiles": "O=C(c1ccc(-c2cc(O)c3ncccc3c2)cc1)N1CCNCC1", "note": "[Compound 5]", "IC50": 1.62},
      {"smiles": "CN1CCN(C(=O)c2cccc(-c3cc(O)c4ncccc4c3)c2)CC1", "note": "[Compound 6]", "IC50": 4.27},
      {"smiles": "O=C(NCCCN1CCNCC1)c1cccc(-c2cc(O)c3ncccc3c2)c1", "note": "[Compound 7]", "IC50": 1.24},
      {"smiles": "CN(C)CC1CCN(C2CCN(C(=O)c3cccc(-c4cc(O)c5ncccc5c4)c3)CC2)CC1", "note": "[Compound 8]", "IC50": 0.99},
      {"smiles": "CN(C)CCCN1CCCN(C(=O)c2cccc(-c3cc(O)c4ncccc4c3)c2)C1", "note": "[Compound 9]", "IC50": 1.52}
    ]},
    {"molecular_target": "T1, JMJD2E", "assay": "AlphaLISA assay, JMJD2E histone demethylase inhibition", "type": "biochemical", "conditions": "Table 3; JMJD2E; AlphaLISA, in triplicate; read-out: IC50", "units": {"IC50": "µM"}, "values": [
      {"smiles": "O=C(O)c1ccc(O)c2ncc(N3CCN(Cc4ccccc4)CC3)cc12", "note": "[Compound 18]", "IC50": 4.98},
      {"smiles": "O=C(O)c1ccc(O)c2ncc(-c3ccc(N4CCOCC4)cc3)cc12", "note": "[Compound 19]", "IC50": 4.18},
      {"smiles": "O=C(O)c1ccc(O)c2ncc(-c3cccc(N4CCOCC4)c3)cc12", "note": "[Compound 20]", "IC50": 5.11},
      {"smiles": "O=C(O)c1ccc(O)c2ncc(NCC3CCCN(CCc4ccccc4)C3)cc12", "note": "(stereo not shown) [Compound 21]", "IC50": 2.1},
      {"smiles": "O=C(O)c1ccc(O)c2ncc(N3CCCCC3CCc3ccccn3)cc12", "note": "(stereo not shown) [Compound 22]", "IC50": 4.66},
      {"smiles": "O=C(O)c1ccc(O)c2ncc(-c3ccc(C(=O)N4CCNCC4)cc3)cc12", "note": "[Compound 23]", "IC50": 3.61},
      {"smiles": "CN1CCN(C(=O)c2ccc(-c3cnc4c(O)ccc(C(=O)O)c4c3)cc2)CC1", "note": "[Compound 24]", "IC50": 4.63},
      {"smiles": "CN(C)CCCNC(=O)c1ccc(-c2cnc3c(O)ccc(C(=O)O)c3c2)cc1", "note": "[Compound 25]", "IC50": 1.41},
      {"smiles": "O=C(O)c1ccc(O)c2ncc(N3CCCN(C4CCCC4)CC3)cc12", "note": "[Compound 26]", "IC50": 2.08},
      {"smiles": "O=C(O)c1ccc(O)c2ncc(N3CCCN(CCCc4ccncc4)CC3)cc12", "note": "[Compound 27]", "IC50": 1.71}
    ]},
    {"system": "HSV-1", "assay": "Plaque assay of Vero cells infected with HSV-1", "type": "cell-based", "design": "# Plaques: dose or concentration left out as unconfirmed", "conditions": "MOI .001; 12 hours infection, then ACV or ML324 for 48 hours", "protocol": "(§1) ML324 was ˜75-fold more efficient than DMOG. Additionally, ML324 (i) reduced viral yields in a dose-dependent manner (˜5 logs at 50 mM, FIG. 14); (ii) blocked viral IE gene transcription and reduced viral yields when cells were infected at high multiplicity of infection (MOI; FIGS. 15 and 16); and (iii) suppressed IE gene transcription, even when added at times after infection (>50% reduction at 2 hours after infection; FIG. 17). As further evidence for the efficacy of ML324, cells were infected with HSV to allow for a productive cycle of infection, followed by treatment with DMSO, ACV, or ML324.", "values": [
      {"smiles": "Nc1nc2c(ncn2COCCO)c(=O)[nH]1", "note": "[ACV, acyclovir, reference compound]", "# Plaques": 1}
    ]},
    {"system": "HSV-1", "assay": "Plaque assay of Vero cells infected with HSV-1", "type": "cell-based", "design": "# Plaques: dose or concentration left out as unconfirmed", "conditions": "MOI .01; 12 hours infection, then ACV or ML324 for 48 hours", "protocol": "as §1", "values": [
      {"smiles": "Nc1nc2c(ncn2COCCO)c(=O)[nH]1", "note": "[ACV, acyclovir, reference compound]", "# Plaques": 8}
    ]},
    {"system": "HSV-1", "assay": "not given", "type": "cell-based, mouse", "conditions": "100 mM ACV or 50 mM ML324, 48 hours", "values": [
      {"smiles": "Nc1nc2c(ncn2COCCO)c(=O)[nH]1", "note": "[ACV, acyclovir, reference compound]", "isolated UL29+ neurons relative to DMSO": "reduced number"}
    ]}
  ]
}
